Results from US5013841A, “Oxo quinoline derivatives” (Dainippon Pharmaceutical Co., Ltd., priority 1987, dated 1991).
In brackets after ≈: the same amount, converted by molar mass. Where two headings read alike, the source gives them in different places.

What was measured:
E. coli NIHJ JC-2 = test: In vitro antibacterial activity (twofold agar-dilution method); format: cell-based; details: Escherichia coli, NIHJJC2, 20 h, read-out: minimum inhibitory concentration (MIC)
Procedure: (§1) The figures in the table show minimum inhibitory concentrations (MIC) (μg/ml), calculated for free base. The minimum inhibitory concentration was determined by the twofold agar-dilution method, which was recommended by Japan Society of Chemotherapy (Chemotherapy, 29(1), 76(1981)), using Muller-Hinton agar. One loopful of an overnight culture of test organisms in Mueller-Hinton broth was inoculated onto 10-ml drug-containing agar layers in petri dishes. Bacterial inocula contained approximately 10^6 colonyl-formingunits. Bacterial growth was observed after 20-hour incubation at 37° C. The MIC was defined as the lowest drug concentration which prevented visible bacterial growth.

E. coli P-5101 = test: as above; format: cell-based; details: Escherichia coli, P5101, 20 h, read-out: minimum inhibitory concentration (MIC)
Procedure: as §1

Flavobacterium sp P-7201 = test: as above; format: cell-based; details: Flavobacterium, P7201, 20 h, read-out: minimum inhibitory concentration (MIC)
Procedure: as §1

P. Aeruginosa 12 = test: as above; format: cell-based; details: Pseudomonas aeruginosa, 20 h, read-out: minimum inhibitory concentration (MIC)
Procedure: as §1

S. aureus 209 JC-1 = test: as above; format: cell-based; details: Staphylococcus aureus, 209JC1, 20 h, read-out: minimum inhibitory concentration (MIC)
Procedure: as §1

S. aureus No. 80 = test: as above; format: cell-based; details: Staphylococcus aureus, NO.80, 20 h, read-out: minimum inhibitory concentration (MIC)
Procedure: as §1

S. aureus Terajima = test: as above; format: cell-based; details: Staphylococcus aureus, 20 h, read-out: minimum inhibitory concentration (MIC)
Procedure: as §1

S. epidermidis No. 8 = test: as above; format: cell-based; details: Staphylococcus epidermidis, NO.8, 20 h, read-out: minimum inhibitory concentration (MIC)
Procedure: as §1

S. marcescens IFO 3736 = test: as above; format: cell-based; details: Serratia marcescens, IFO3736, 20 h, read-out: minimum inhibitory concentration (MIC)
Procedure: as §1

S. pyogenes Cook = test: as above; format: cell-based; details: Streptococcus pyogenes, 20 h, 37° C., calculated for free base, read-out: minimum inhibitory concentration (MIC)
Procedure: as §1

[1] = system: Streptococcus pneumoniae 1 Neufeld; format: in vivo, Streptococcus pneumoniae (male mice, Std-ddY); details: 336 h, read-out: median effective dose (ED50)
[2] = system: Streptococcus pyogenes A65; details: A65, in Mus musculus, po, 168 h, read-out: median effective dose (ED50)
[3] = Urinary excretion in mice (thin-layer cup-plated method, Escherichia coli Kp indicator); format: in vivo; details: mouse, urine, oral, 5 mg/kg, read-out: Urinary recovery for 24 hours
Procedure: A suspension containing each of compounds was orally administered to mice at a dose of 5 mg/kg. Urine was collected over a period of 24 hours after adminstration. The levels of the compounds in urine were determined by the thin-layer cup-plated method using Escherichia coli Kp as an indicator organism.

[4] = system: Staphylococcus aureus 50774; format: in vivo, Staphylococcus aureus (male mice, Std-ddY); details: Staphylococcus aureus, 50774, po, 336 h, read-out: median effective dose (ED50)
Text: Staphylococcus aureus 50774
Intravenous infection with 5×10^8 cells per mouse suspended in saline.
For 7 days for other organisms.

M. pneumoniae Mac = test: Antimycoplasma activity (twofold agar dilution method); format: cell-based, Mycoplasma pneumoniae; details: Mycoplasmoides pneumoniae, 168 h, read-out: minimum inhibitory concentration (MIC)
Procedure: (§2) The figures in the table show minimum inhibitory concentrations (MIC), (μg/ml), calculated for free base.
(§3) Minimum inhibitory concentrations (MIC) were determined by the twofold agar dilution method. The media used were Chanock broth and agar PPLD broth and agar (Difco) supplemented with 20% horse serum and 10% fresh yeast extract). A 2-3 day broth culture of organisms was diluted with Chanock broth to a cell density of about 10^6 cells/ml. One loopful (about […]) of the organism dilution was spotted onto 10-ml drug containing Chanock agar in petri dishes using a multiple inoculator (Cathra International). The petri dishes were incubated at 37° C. for 7 and 2 days for Mycoplasma pneumoniae and other Mycoplasma spp. respectively. Incubation was performed anaerobically using the Gaspak anaerobic system (BBL) for M. buccale, M. fermentans, M. hominis, M. orale and M. salivarium, and aerobically for other Mycoplasma spp. The MIC was defined as the lowest compound concentration at which no growth of organism was detected.

A. laidlawii PG-8 = test: as above; format: cell-based; details: Acholeplasma laidlawii, PG8, 48 h, read-out: minimum inhibitory concentration (MIC)
Procedure: as §2, §3

M. arginini G-230 = test: as above; format: cell-based; details: 48 h, read-out: minimum inhibitory concentration (MIC)
Procedure: as §2, §3

M. buccale CH-20249 = test: as above; format: cell-based; details: 48 h, read-out: minimum inhibitory concentration (MIC)
Procedure: as §2, §3

M. fermentans PG-18 = test: as above; format: cell-based; details: Mycoplasmopsis fermentans, PG18, 48 h, read-out: minimum inhibitory concentration (MIC)
Procedure: as §2, §3

M. hominis PG-21 = test: as above; format: cell-based; details: Metamycoplasma hominis, PG21, 48 h, read-out: minimum inhibitory concentration (MIC)
Procedure: as §2, §3

M. hyorhinis BST-7 = test: as above; format: cell-based; details: Mesomycoplasma hyorhinis, BST7, 48 h, read-out: minimum inhibitory concentration (MIC)
Procedure: as §2, §3

M. orale CH-19299 = test: as above; format: cell-based; details: 48 h, read-out: minimum inhibitory concentration (MIC)
Procedure: as §2, §3

M. salivarium PG-20 = test: as above; format: cell-based; details: 48 h, read-out: minimum inhibitory concentration (MIC)
Procedure: as §2, §3

[5] = system: C. Trachomatics G/ur 1317; test: Antichlamydia activity (inclusion bodies in McCoy cells); format: cell-based; details: 36° C., 40-48 h, calculated for free base, read-out: minimum inhibitory concentration (MIC)
Procedure: (§4) Minimum inhibitory concentrations (MIC) were determined as follows. McCoy cells were freshly cultured in Eagle's minimum essential medium (EMEM) (Flow) supplemented with 4% fetal bovine serum and 0.03% L-glutamine. The cells were trypsinized and suspended in the same culture medium at a cell concentration of 1-2×10^5 cells/ml. One ml of the cell suspension was pipetted into flat-bottomed plastic tubes (14 mm in diameter) containing a cover slip (12 mm in diameter). The tubes were incubated in 5% CO2 -air at 36° C. for 20 hours. One-half ml of a chlamydial suspension (ca. 1-4×10^3 inclusion body forming units) was added into each tube, which was then centrifuged at 1500×g for 60 minutes. The tubes were incubated for 1 hour at 36° C. The medium was changed with 1 ml of EMEM supplemented with 8% fetal bovine serum, 0.03% L-blutamine, 1μg/ml cycloheximide and 0.5% glucose, and containing drugs at various concentrations. After further incubation at 36° C. for 40-48 hours, the cells on the cover glasses were stained with the Giemsa's solution. […] The MIC was defined as the lowest drug concentration where there were no inclusion bodies in all the cells on the cover slip.

[6] = system: C. Trachomatics G/ur 1467; test: as above; format: cell-based; details: 36° C., 40-48 h, calculated for free base, read-out: minimum inhibitory concentration (MIC)
Procedure: as §4

[7] = system: C. Trachomatics G/ur 1483; test: as above; format: cell-based; details: 36° C., 40-48 h, calculated for free base, read-out: minimum inhibitory concentration (MIC)
Procedure: as §4

C. Trachomatics G/ur 931 = test: as above; format: cell-based; details: 36° C., 40-48 h, calculated for free base, read-out: minimum inhibitory concentration (MIC)
Procedure: as §4

For Nc1c(F)c(N2CCNCC2)c(F)c2c1c(=O)c(C(=O)O)cn2C1CC1 [Compound B, 5-amino-1-cyclopropyl-6,8-difluoro-7-(1-piperazinyl)-1,4-dihydro-4-oxoquinoline-3-carboxylic acid, reference compound], the MIC (E. coli NIHJ JC-2) was 0.0063 µg/mL (≈ 0.0173 µM), the MIC (E. coli P-5101) was 0.0063 µg/mL (≈ 0.0173 µM) and the MIC (Flavobacterium sp P-7201) was 0.1 µg/mL (≈ 0.274 µM). The MIC (P. Aeruginosa 12) was 0.1 µg/mL (≈ 0.274 µM), the MIC (S. aureus 209 JC-1) was 0.05 µg/mL (≈ 0.137 µM) and the MIC (S. aureus No. 80) was 0.05 µg/mL (≈ 0.137 µM). It also gave an MIC (S. aureus Terajima; S. aureus Terajima, agar dilution, 37° C., calculated for free base) of 0.025 µg/mL (≈ 0.0686 µM), an MIC (S. epidermidis No. 8) of 0.05 µg/mL (≈ 0.137 µM) and an MIC (S. marcescens IFO 3736) of 0.1 µg/mL (≈ 0.274 µM). The MIC (S. pyogenes Cook) was 0.2 µg/mL (≈ 0.549 µM), the ED50 ([1]; mice, oral, four times (immediately, 6, 24 and 30 h after intraperitoneal infection), 14 days, calculated for free base) was 20.8 mg/kg and the ED50 [2] was over 50 mg/kg.

CC1CN(c2c(F)c(N)c3c(=O)c(C(=O)O)cn(C4CC4)c3c2F)CC(C)N1 (centres unmarked) [Compound C, 5-amino-1-cyclopropyl-6,8-difluoro-7-(3,5-dimethyl-1-piperazinyl)-1,4-dihydro-4-oxoquinoline-3-carboxylic acid, reference compound] showed a dose excreted at 24 h [3] of 4.51%.

In the case of O=C(O)c1cn(C2CC2)c2cc(N3CCNCC3)c(F)cc2c1=O [Compound A, reference compound], the MIC (E. coli NIHJ JC-2) is reported as 0.0063 µg/mL (≈ 0.019 µM), the MIC (E. coli P-5101) is reported as 0.0063 µg/mL (≈ 0.019 µM) and the MIC (Flavobacterium sp P-7201) is reported as 0.39 µg/mL (≈ 1.18 µM). The MIC (P. Aeruginosa 12) was 0.1 µg/mL (≈ 0.302 µM), the MIC (S. aureus 209 JC-1) was 0.1 µg/mL (≈ 0.302 µM) and the MIC (S. aureus No. 80) was 0.39 µg/mL (≈ 1.18 µM). For the same compound, the MIC (S. aureus Terajima) was 0.1 µg/mL (≈ 0.302 µM), the MIC (S. epidermidis No. 8) was 0.1 µg/mL (≈ 0.302 µM) and the MIC (S. marcescens IFO 3736) was 0.05 µg/mL (≈ 0.151 µM). For the same compound, the MIC (S. pyogenes Cook) was 0.2 µg/mL (≈ 0.604 µM), the ED50 [4] was 8.24 mg/kg and the ED50 ([1]; po) was 31.3 mg/kg. The MIC (M. pneumoniae Mac) was 0.78 µg/mL (≈ 2.35 µM), the MIC (A. laidlawii PG-8) was 0.39 µg/mL (≈ 1.18 µM) and the MIC (M. arginini G-230) was 0.39 µg/mL (≈ 1.18 µM). The MIC (M. buccale CH-20249) was 0.39 µg/mL (≈ 1.18 µM), the MIC (M. fermentans PG-18) was 0.2 µg/mL (≈ 0.604 µM) and the MIC (M. hominis PG-21) was 1.56 µg/mL (≈ 4.71 µM). It also gave an MIC (M. hyorhinis BST-7) of 0.39 µg/mL (≈ 1.18 µM), an MIC (M. orale CH-19299) of 1.56 µg/mL (≈ 4.71 µM) and an MIC (M. salivarium PG-20) of 3.13 µg/mL (≈ 9.45 µM). It also gave an MIC [5] of 2 µg/mL (≈ 6.04 µM), an MIC [6] of 1 µg/mL (≈ 3.02 µM) and an MIC [7] of 1 µg/mL (≈ 3.02 µM). It also gave an MIC (C. Trachomatics G/ur 931) of 1 µg/mL (≈ 3.02 µM).
